Laboratory results published in patent US20110136788A1, “THERAPEUTIC AGENT FOR IRRITABLE BOWEL SYNDROME” (priority 2008, published 2011).
Like-named read-outs stand apart in the source and are kept apart here.

How the values were obtained:
human TGR5 = molecular target: T1, human TGR5 (Homo sapiens, UniProt Q8TDU6); test: cAMP production in CHO cell line expressing human TGR5 (CHO-hTGR5); type: cell-based
T1 construct: expressed in transfected cells; host or cells: CHO cells
T1 sequence (Q8TDU6 1-330): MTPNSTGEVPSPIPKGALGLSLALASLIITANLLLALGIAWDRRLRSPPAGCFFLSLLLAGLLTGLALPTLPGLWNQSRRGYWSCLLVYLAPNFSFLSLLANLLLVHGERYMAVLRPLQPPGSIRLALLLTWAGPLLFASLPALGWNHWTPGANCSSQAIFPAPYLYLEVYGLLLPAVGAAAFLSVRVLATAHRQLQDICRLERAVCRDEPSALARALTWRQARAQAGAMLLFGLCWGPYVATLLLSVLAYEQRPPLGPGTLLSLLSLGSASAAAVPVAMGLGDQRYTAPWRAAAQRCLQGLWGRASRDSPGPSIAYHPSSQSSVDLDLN
Procedure: [The procedure below names another species; the source lists this species under the same test.] (§1) CHO cell line expressing mouse TGR5 (CHO-mTGR5), which was prepared by a method known per se and using the mouse TGR5 expression vector, was suspended in an assay medium (Hanks' Balanced Salt Solution (Invitrogen) added with 0.2 mM isobutylmethylxanthine and 0.1% bovine albumin) at 1×10^7 cells/ml and stood at room temperature for 30 min. Then, a compound diluted with the assay medium to each concentration was added, and the mixture was stood still at room temperature for 30 min, and the cAMP amount was measured according to the protocol of ALPHA SCREEN cAMP ASSAY KIT (Perkin Elmer). […] The EC50 value was calculated by using GraphPad PRISM (GraphPad software) from the amount of cAMP produced by each compound.

mouse TGR5 = molecular target: T2, mouse TGR5 (Mus musculus, UniProt Q80SS6); test: cAMP production in CHO cell line expressing mouse TGR5 (CHO-mTGR5); type: cell-based
T2 construct: expressed in transfected cells; host or cells: CHO cells, expression vector pAKKO-111H
T2 sequence (Q80SS6 1-329): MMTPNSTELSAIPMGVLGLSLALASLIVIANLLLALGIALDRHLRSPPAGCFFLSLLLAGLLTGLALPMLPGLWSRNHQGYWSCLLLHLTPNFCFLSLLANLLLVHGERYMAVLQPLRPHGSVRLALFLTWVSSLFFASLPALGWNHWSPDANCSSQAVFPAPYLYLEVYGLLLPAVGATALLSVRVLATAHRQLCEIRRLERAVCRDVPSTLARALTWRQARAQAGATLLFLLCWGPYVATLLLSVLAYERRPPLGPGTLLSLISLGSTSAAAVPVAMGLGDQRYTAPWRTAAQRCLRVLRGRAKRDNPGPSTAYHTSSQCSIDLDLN
Procedure: as §1

rat TGR5 = molecular target: T3, rat TGR5 (Rattus norvegicus, UniProt Q80T02); test: cAMP production in CHO cell line expressing rat TGR5 (CHO-rTGR5); type: cell-based
T3 construct: expressed in transfected cells; host or cells: CHO cells
T3 sequence (Q80T02 1-329): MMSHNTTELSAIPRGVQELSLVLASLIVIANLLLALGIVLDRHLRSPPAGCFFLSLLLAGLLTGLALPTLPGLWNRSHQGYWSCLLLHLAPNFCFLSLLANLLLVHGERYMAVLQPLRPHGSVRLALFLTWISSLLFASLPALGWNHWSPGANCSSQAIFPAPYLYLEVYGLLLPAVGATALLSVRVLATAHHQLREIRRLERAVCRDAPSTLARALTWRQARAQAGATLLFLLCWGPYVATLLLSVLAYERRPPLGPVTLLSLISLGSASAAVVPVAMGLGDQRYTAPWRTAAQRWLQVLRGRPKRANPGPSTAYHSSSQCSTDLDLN
Procedure: [The procedure below names another species; the source lists this species under the same test.] as §1

[1] = test system: restraint stress-induced bowel movement, male C57BL/6 mice; test: mouse restraint stress-induced bowel movement; type: in vivo; details: intraperitoneal; for suppression of restraint stress-induced bowel movement: 10 min before stress loading, excreted feces in 2 hr, FIG. 2
Procedure: Male C57BL/6 mice were used under non-fasting conditions. On the day of the test, the body weight was measured, and the mice were individually bred for 2 hr. Thereafter, the mice were placed in a mouse restraint stress cage, and the number of excreted feces in 2 hr was counted. The normal group was individually bred for 2 hr, and subsequently was bred under the same conditions, the number of excreted feces in 2 hr was counted. Each drug (same as in Example 1) was suspended in 0.5% methylcellulose, and intraperitoneally administered at a dose of 10 ml/kg 10 min before stress loading.

[2] = test system: stress-induced bowel movement; details: various animals, references 6-9; cited from earlier work
[3] = test system: rat ileum peristalsis motility; test: rat exo-vivo ileum peristalsis; details: isolated ileum of male SD rats, intraluminal pressure; FIG. 3
Procedure: Male SD rats were used under non-fasting conditions. On the day of the test, 4-5 cm of the ileum was isolated, and the oral side end and aboral side end were subjected to cannulation. 95% oxygen/5% carbon dioxide was passed therethrough and placed horizontally in a bath filled with a Krebs solution warmed to 37° C. A tube outflux on the aboral side was set at about 4 cm higher than the bath, 95% oxygen/5% carbon dioxide was passed from the tube on the oral side and perfused with a Krebs solution warmed to 37° C. at a flow rate of 10 cc/hr to induce peristalsis motility. Changes of the intraluminal pressure of the intestine due to the peristalsis motility of the ileum were recorded by a transducer from the tube on the oral side. A compound at various concentrations was added to the Krebs solution surrounding the ileum. When a compound at various concentrations was added, the Krebs solution was exchanged immediately before the addition.

[4] = CHO-hTGR5, cAMP production, read-out: EC50 value
[5] = CHO-rTGR5, cAMP production, read-out: EC50 value
[6] = Table 8, rat TGR5, read-out: EC50 (M) Rat

SMILES | EC50 (human TGR5; [4]) | EC50 (mouse TGR5) | EC50 (rat TGR5; [5]) | suppressive action on the restraint stress-induced bowel movement ([1]; dose 30 mg/kg) | suppression of restraint stress-induced bowel movement [1] | EC50 (rat TGR5; [6]) | suppressive action on the restraint stress-induced bowel movement ([1]; dose 10 mg/kg) | suppression of stress-induced bowel movement [2] | EC50 (human TGR5; Table 8, human TGR5, read-out: EC50 (M) Human) | suppression of peristalsis motility of the ileum [3] | suppressive action on the restraint stress-induced bowel movement ([1]; dose 3 mg/kg)
CC(c1cc(C(F)(F)F)cc(C(F)(F)F)c1)N1Cc2c(-c3ccccc3F)ccnc2OCC1=O (centres unmarked) [Compound B, 4-{1-[3,5-bis(trifluoromethyl)phenyl]ethyl}-6-(2-fluorophenyl)-4,5-dihydropyrido[3,2-f][1,4]oxazepin-3(2H)-one] | 6.2e-10 M | 25 nM | 2.4e-09 M | statistically significant suppressive action | suppressed a restraint stress-induced bowel movement in a dose-dependent manner |  |  |  |  |  | 
CN1C(=O)C(C)(C)N(C(=O)COc2cccc3cnccc23)c2ccc(F)cc21 [Compound C, 7-fluoro-4-[(isoquinolin-5-yloxy)acetyl]-1,3,3-trimethyl-3,4-dihydroquinoxalin-2(1H)-one] | 2.1e-09 M | 25 nM | 9.9e-09 M | statistically significant suppressive action | suppressed a restraint stress-induced bowel movement in a dose-dependent manner | 9.9e-09 M | statistically significant suppressive action |  |  |  | 
Cc1[nH]cnc1CN1CCc2c(c3ccccc3n2C)C1=O [Alosetron] |  |  |  |  |  |  |  | suppress stress-induced bowel movement |  |  | 
O=C1COc2nccc(-c3ccccc3O)c2CN1Cc1cc(C(F)(F)F)cc(C(F)(F)F)c1 [Compound E, 4-[3,5-bis(trifluoromethyl)benzyl]-6-(2-hydroxyphenyl)-4,5-dihydropyrido[3,2-f][1,4]oxazepin-3(2H)-one] | 2.4e-07 M |  | 3.2e-07 M |  |  |  |  |  | 2.4e-07 M | suppressed the peristalsis motility of the ileum in a dose-dependent manner | 
CC(c1cc(C(F)(F)F)cc(C(F)(F)F)c1)N1CCOc2nccc(-c3ccccc3)c2C1.Cl (centres unmarked) [Compound D, 4-{1-[3,5-bis(trifluoromethyl)phenyl]ethyl}-6-phenyl-2,3,4,5-tetrahydropyrido[3,2-f][1,4]oxazepine hydrochloride] | 1.6e-09 M | 730 nM | 1.2e-07 M | statistically significant suppressive action | suppressed a restraint stress-induced bowel movement in a dose-dependent manner | 1.2e-07 M | statistically significant suppressive action |  |  | suppressed the peristalsis motility of the ileum in a dose-dependent manner | statistically significant suppressive action
O=C1COc2nccc(-c3ccccc3F)c2CN1Cc1cc(C(F)(F)F)cc(C(F)(F)F)c1 [Compound A, 4-[3,5-bis(trifluoromethyl)benzyl]-6-(2-fluorophenyl)-4,5-dihydropyrido[3,2-f][1,4]oxazepin-3(2H)-one] |  |  |  | statistically significant suppressive action | suppressed a restraint stress-induced bowel movement in a dose-dependent manner |  |  |  |  | suppressed the peristalsis motility of the ileum in a dose-dependent manner | 
